Reference: patent publication US9234025B2, “Extracellular allosteric inhibitor binding domain from a tyrosine kinase receptor” (SANOFI, priority 2009, dated 2016)

Columns and labels:
[1] = tested on: cognate receptor of >100 distinct ligands; assay: SPA selectivity, >100 distinct ligands to their cognate receptor; type: binding; conditions: ligands with related structural homology or entirely different chemical composition
[2] = biological target: T1, ECD of FGFR1 (FGFR1^∂123) (Homo sapiens, UniProt P11362); assay: STD-NMR / 1D-NMR binding assay, FGFR1 ECD
T1 construct: (ECD; amino acids: 39-358) of the human FGFR1 gene (P11362); His-tag followed by TEV protease cleavage site (N); made in house; host or cells: E. coli BL21(DE3)
T1 sequence (P11362 39-358): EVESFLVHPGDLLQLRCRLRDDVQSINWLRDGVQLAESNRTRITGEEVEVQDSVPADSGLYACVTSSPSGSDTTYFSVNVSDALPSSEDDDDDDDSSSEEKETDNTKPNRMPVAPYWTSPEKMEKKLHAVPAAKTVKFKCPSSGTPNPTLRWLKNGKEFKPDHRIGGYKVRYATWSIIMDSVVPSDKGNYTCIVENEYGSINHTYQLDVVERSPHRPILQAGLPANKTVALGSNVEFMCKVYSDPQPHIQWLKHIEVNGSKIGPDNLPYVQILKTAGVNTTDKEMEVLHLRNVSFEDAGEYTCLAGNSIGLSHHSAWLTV
Procedure: The extracellular domain (ECD; amino acids: 39-358) of the human FGFR1 gene (P11362) was PCR amplified and cloned into E. coli vector pETTEV (with a N-terminal His-tag followed by a TEV protease cleavage site), using NdeI and BamHI restriction sites. For protein production, the resulting plasmid (pET FGFR1 D1D2D3) was transformed into E. coli BL21(DE3) (Novagene). Cells were grown at 37° C. until the OD600 reached 0.6 and recombinant protein production was induced by adding 1 mM IPTG (isopropyl-b-D-thiogalactopyranoside). After 4 hours induction, cells were harvested and stored at −80° C. until usage. The cell pellet (1 L culture) was thawed and resuspended in 50 ml buffer 1 (20 mM Tris/HCl, pH 7.5, 200 mM NaCl) containing lysozyme (2 mg), and 40 U benzonase (Merck). […] Complex formation was analyzed by size exclusion chromatography and subsequent analysis on SDS-PAGE.
All STD- and 1D-NMR experiments were carried out on a BRUKER three-channel DRX600 and on a BRUKER four-channel DRX800 spectrometer at the standard temperature of 298 K and were referenced to the internal standard 3-Trimethyl-2,2,3,3-tetradeuteropropionate-sodium salt (TSP). […] For protein ligand 1D STD NMR measurements spectra were recorded with 1 mM ligand SSR128129E (100 mM DMSO stock solution) and […] protein with weak 2s RF irradiation on separated protein methyl resonances. […]

[3] = biological target: T2, FGFR1^∂3 (Homo sapiens, UniProt P11362); assay: 1D-NMR, FGFR1 domain D3 fragment; type: binding
T2 construct: a fragment containing only domain D3 (FGFR1^∂3)
T2 sequence (P11362 255-357 limits assumed): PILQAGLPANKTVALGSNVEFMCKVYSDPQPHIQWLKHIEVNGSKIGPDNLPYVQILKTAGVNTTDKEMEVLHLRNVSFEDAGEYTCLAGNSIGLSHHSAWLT
Procedure: All STD- and 1D-NMR experiments were carried out on a BRUKER three-channel DRX600 and on a BRUKER four-channel DRX800 spectrometer at the standard temperature of 298 K and were referenced to the internal standard 3-Trimethyl-2,2,3,3-tetradeuteropropionate-sodium salt (TSP). Typically, NMR samples contained 0.5 ml of protein ([…]) in 25 mM Tris/HCl, pH 8.0, 200 mM NaCl, 25 mM L-arginine, 2 mM EDTA, 0.02% azide (in 95% H2O/5% D2O). For protein ligand 1D STD NMR measurements spectra were recorded with 1 mM ligand SSR128129E (100 mM DMSO stock solution) and […] protein with weak 2s RF irradiation on separated protein methyl resonances. Water suppression was carried out using the standard Bruker WATERGATE 3-9-19 sequence. NMR data were processed using the Bruker program xwin NMR software.
Since SSR was a multi-FGFR inhibitor, we used polypeptide fragments of the various (human) FGFR subtypes. […] We then used ECD fragments of FGFRs to map the binding site of SSR to one of the three Ig-domains. […] In fact, FGFR1^∂3 and FGFR1^∂123 give identical signals (broad line) meaning that we obtained same affinity for these proteins while FGFR1^∂12 and FGFR1^∂2 cause sharp lines (FIG. 11B).

[4] = tested on: AKT phosphorylation in HUVEC cells; assay: western blot analysis of AKT phosphorylation in HUVEC; type: cell-based, human; conditions: phospho-AKT Ser473
Procedure: HUVE Cells (Promocell, C-12200) are seeded in 35 mm collagen I coated disk (BD Biocoat, 354456) at 0.5.10^6 cells in 2 ml of EBM medium (Clonetics, CC-3121) containing 2% FBS (Clonetics, CC-4101), 10 μg/ml hEGF (Clonetics, CC-4017) from the EGM singlequots kit (Clonetics, CC-4133), 1250 ng/ml heparin (Sigma, H3149) and 375 ng/ml ECGS (BD Biosciences, 356006). At 90% confluency, cells are starved overernight in 1.8 ml of RPMI 1640 (Invitrogen, 32404-014), 0.5% FCS, 2 mM glutamine, 1 mM non-essential amino acids (Invitrogen, 11140-050), sodium pyruvate (Invitrogen, 11360-070). The day after, cells are stimulated 10 min by 200 μl of equilibrated starvation medium that contains 10×FGF-4 (30 ng/ml; R&D, 235-F4-025) with or without 10×SSR (3 μM). Next, cells are rinsed with cold PBS and cell lysed with 75 μl RIPA that contains 2.5 mM orthovanadate and protease inhibitors cocktail (Sigma, P8340). Cell lysates were centrifuged at 12,000 g for 10 min, and the supernatants were collected. Proteins were separated on 4-20% Novex Tris-Glycine polyacrylamide gels (Invitrogen) and subsequently transferred onto nitrocellulose membranes (Invitrogen, IB3010-01). […] Signal of each spot is obtained following chemiluminescent detection with SuperSignal® West Dura Extended Duration Substrate (Thermo Scientific, 34076) and spot density is quantified using a Biolmaging System Chemigenius2 (Syngene).

COc1c(C)c(C(=O)c2ccc(N)c(C(=O)[O-])c2)n2ccccc12.[Na+] [SSR]
binding of >100 distinct ligands to their cognate receptor [1]: not inhibiting | binding to ECD of FGFR1 ([2]; STD-NMR, confirmed by 1D-NMR peak broadening): bound | STD-NMR signal of SSR to the FGFR with heparin analogue ([2]; presence or absence of sucrose octasulphate (SOS)): comparable signal | binding to FGFR1 domain D3 fragment [3]: identified a binding site for SSR | FGF-induced AKT phosphorylation [4]: inhibit
